Measured values as given in patent US6509369B2, “Anti-inflammatory compounds” (Ortho-McNeil Pharmaceutical, Inc., priority 1997, dated 2003).

Tests used:
[1] = test system: human progesterone receptor (hPR); assay: human progesterone receptor binding assay (displacement of 3(H) R5020 Promegestone)
Protocol: A human progesterone receptor binding assay was performed in order to determine selectivity of the compounds, as follows. Human progesterone receptors were prepared from either insect cells (SF21) infected with baculovirus hPR A, or from a breast cancer cell line, T47D, which expresses high levels of endogenous hPR. The receptor binding reactions, with or without test compounds, were set up in 96-well microtiter plates which were previously siliconized with SIGMACOTE. The binding components, 3(H) R5020 Promegestone, a high affinity ligand for the progesterone receptors, glycerol/molybdate-containing buffer and unlabeled compounds were added to the wells using a combination of BIOMEK laboratory automation system and repeat pipettes. After overnight incubation, the samples were precipitated with polyethylene glycol and filtered through Whatman GF/F paper using a TOMTEK cell harvester. The filter mate with 96 samples were bound to a solid-phase scintillant and directly counted in the BETAPLATE counter. Only those compounds that were active in the human glucocorticoid receptor assay set forth in Example 30 were used for progesterone receptor binding to determine cross-reactivity profiles, if any. The activity of test compounds to displace 3(H) R5020 binding to hPR is expressed as percent inhibition at the two concentrations, 10^−6 and 10^−5 Molar.

[2] = molecular target: T1, human glucocorticoid receptor (hGR) (Homo sapiens, UniProt P04150); assay: human glucocorticoid receptor binding assay (displacement of 3(H) Triamcinolone acetonide)
T1 construct: made in house; host or cells: Sf21 insect cells infected with baculovirus hGR, OR IM9 lymphoblast cell line (endogenous hGR)
T1 sequence (P04150 1-777): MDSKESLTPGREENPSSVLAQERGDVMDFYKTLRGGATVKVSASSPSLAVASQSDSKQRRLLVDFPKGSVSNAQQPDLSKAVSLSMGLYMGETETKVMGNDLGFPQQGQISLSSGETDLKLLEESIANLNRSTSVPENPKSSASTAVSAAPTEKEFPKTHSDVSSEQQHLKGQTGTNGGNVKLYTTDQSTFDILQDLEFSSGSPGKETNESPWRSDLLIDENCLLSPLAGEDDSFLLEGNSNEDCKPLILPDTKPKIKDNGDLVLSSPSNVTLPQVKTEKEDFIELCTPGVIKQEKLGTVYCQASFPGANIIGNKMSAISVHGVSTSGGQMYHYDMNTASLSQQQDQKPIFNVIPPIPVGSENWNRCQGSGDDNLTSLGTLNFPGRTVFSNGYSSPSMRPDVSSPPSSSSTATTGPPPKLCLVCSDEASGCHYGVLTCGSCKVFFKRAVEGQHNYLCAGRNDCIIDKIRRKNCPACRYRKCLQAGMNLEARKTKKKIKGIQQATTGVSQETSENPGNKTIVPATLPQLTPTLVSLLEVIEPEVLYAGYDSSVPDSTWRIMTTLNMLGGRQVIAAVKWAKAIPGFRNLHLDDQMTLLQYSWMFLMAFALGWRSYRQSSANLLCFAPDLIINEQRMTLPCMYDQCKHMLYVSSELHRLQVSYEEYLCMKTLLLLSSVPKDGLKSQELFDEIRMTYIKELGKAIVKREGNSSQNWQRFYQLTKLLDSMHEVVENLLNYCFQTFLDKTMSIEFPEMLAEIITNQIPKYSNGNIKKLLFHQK

[3] = test system: oxazolone-induced ear swelling (MOCH) in albino male CD-1 mice; assay: mouse oxazolone-induced contact hypersensitization (MOCH) ear swelling; format: in vivo; settings: for inhibition in vivo at 1 mg: topical to mouse ear, one hour after oxazolone challenge, ear biopsy weight at 24 hours, read-out: Oxazolone Ear Swelling (MOCH) % inhibition vs. Vehicle at 1 mg; for topical antiinflammatory activity in the oxazolone model (in words): mouse ear; for Oxazolone Ear swelling % Inhibition vs. Vehicle: topical mouse ear; for topical antiinflammatory activity in the oxazolone model (in words) / dose-related activity in the oxazolone model (in words): topical; for dose-related activity in the oxazolone model (in words): doses 0.1-3%
How it was run: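 Male CD-1 mice aged 7–9 weeks were sensitised on the abdomen with 3% oxazolone on Day 0 and challenged on Day 5 with 2% oxazolone on the left ear. Compounds in ethanol/propylene glycol 70:30 were applied topically to that ear 1 h after challenge. At 24 h, the weight difference between 7 mm left and right ear biopsies gave the measure of inhibition.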

[4] = test system: TPA-induced ear edema in albino male CD1 mice; assay: TPA (phorbol ester)-induced ear edema; format: in vivo; settings: dose 1%, topical mouse ear, 5.5 hours after TPA
Protocol: Several triphenylpropanamide compounds of this invention, having varying affinities for the human glucocorticoid receptor, were tested for topical antiinflammatory activity in mouse ear inflammation models. […] Compounds having receptor affinities closer to hydrocortisone were as nearly active as hydrocortisone in suppressing mouse oxazolone-induced contact hypersensitization (MOCH) and phorbol ester-induced ear edema. The in vivo studies of this example were conducted as follows.
Albino male CD1 mice, 7-9 weeks old were used in this example. A 0.005% (w/v) TPA or 20% (w/v) arachidonic acid (AA) solution was made in acetone. A 20 μl volume of the TPA or AA was applied to the dorsal left ear of the mouse. Compounds of this invention were placed in a composition containing ethanol/propylene glycol at a ratio of 70:30 were applied to the left ear of each mouse in an amount of 20 μl immediately after application of the TPA or AA. The right ear was not treated. The mice were sacrificed by carbon dioxide inhalation 5.5 hours after administration of TPA and one hour after administration of AA, the left and right ears were removed and a 7 mm biopsy was removed from each ear and weighed. The difference in biopsy weights between the right and left ears was calculated. Antiinflammatory effects of compounds were evident as an inhibition of the increase in ear weight.

Row | hPR % inh 10 μM [1] | melting point | IC50 [2] | Structure (SMILES) | topical antiinflammatory activity in the oxazolone model (in words) [3] | % Inhibition of TPA Ear Edema vs. Vehicle [4] | further results
1 | −0.2% | 146 to 147 °C | 890 nM | O=C(Cc1ccccc1)NCC(c1ccccc1)C(c1ccccc1)c1ccccc1 (stereo not drawn) [Compound 1] | – | – | –
2 | – | 87.5 to 89.7 °C | 21 nM | O=C(Cc1ccccc1)NCC(c1ccccc1)C(c1ccc(F)cc1)c1ccc(F)cc1 (stereo not drawn) [Compound 15] | moderate topical activity | – | inhibition in vivo at 1 mg [3]: 47%
3 | 21% | 122.2 to 123.5 °C | 57 nM | COc1ccccc1CCC(=O)NCC(c1ccc(Cl)cc1)C(c1ccccc1)c1ccccc1 (stereo not drawn) [Compound 21] | – | – | –
4 | 28.3% | – | 8 nM | O=C(Cc1cccs1)NCC(c1ccccc1)C(c1ccccc1)c1ccccc1 (stereo not drawn) [Compound 29, N-(2-thiophrne)acetyl-2,3,3-triphenylpropylamine] | equiactive with hydrocortisone | 64.9% | Oxazolone Ear swelling % Inhibition vs. Vehicle ([3]; Experiment 1, dose 0.1%): 4.3%; Oxazolone Ear swelling % Inhibition vs. Vehicle ([3]; Experiment 1, dose 0.3%): 34.7%; Oxazolone Ear swelling % Inhibition vs. Vehicle ([3]; Experiment 1, dose 1%): 49.9%; Oxazolone Ear swelling % Inhibition vs. Vehicle ([3]; Experiment 1, dose 3%): 66.5%; dose-related activity in the oxazolone model (in words) [3]: inhibited ear swelling in a dose-dependent manner
5 | – | – | 7 nM | Cc1ccc(CC(=O)NCC(c2ccccc2)C(c2ccc(F)cc2)c2ccc(F)cc2)s1 (stereo not drawn) [Compound 32] | equiactive with hydrocortisone | 60.0% | Oxazolone Ear swelling % Inhibition vs. Vehicle ([3]; Experiment 2, dose 0.1%): 11.2%; Oxazolone Ear swelling % Inhibition vs. Vehicle ([3]; Experiment 2, dose 0.3%): 18.95%; Oxazolone Ear swelling % Inhibition vs. Vehicle ([3]; Experiment 2, dose 1%): 31.45%; Oxazolone Ear swelling % Inhibition vs. Vehicle ([3]; Experiment 2, dose 3%): 36.5%; dose-related activity in the oxazolone model (in words) [3]: inhibited ear swelling in a dose-dependent manner
6 | – | 138.2 to 139.9 °C | 723 nM | O=C(Cc1cccs1)NCC(c1cccs1)C(c1ccccc1)c1ccccc1 (stereo not drawn) [Compound 46] | – | – | inhibition in vivo at 1 mg [3]: 4%
7 | – | – | – | C[C@]12CCC(=O)C=C1CC[C@@H]1[C@@H]2[C@@H](O)C[C@@]2(C)[C@H]1CC[C@]2(O)C(=O)CO [hydrocortisone, reference compound] | – | 80.6% | Oxazolone Ear swelling % Inhibition vs. Vehicle ([3]; Experiment 1, dose 1%): 78.9%; Oxazolone Ear swelling % Inhibition vs. Vehicle ([3]; Experiment 2, dose 1%): 58.2%
